Reference: patent US6365634B1, “Naturally occurring compounds and their derivatives as cyclooxygenase 2 and/or 5-lipoxygenase inhibitors” (C-P Technology Limited Partnership, priority 1997, dated 2002)

Assays:
[1] = system: human keratinocyte PGE2 production; assay: Cell-based COX II assay: PGE2 production by cultured human foreskin keratinocytes (enzyme immunoassay); details: 5, 1.0, 0.2 and 0.04 uM, 24 hours, high calcium medium
Method: The ability of dehydroabietic acid methyl ester to inhibit the enzymatic activities of COX II and 5-LO was tested using primary cultures of human foreskin keratinocytes. Briefly, human keratinocytes were plated in 48-well plates (Nunc) at an initial density of 2.5×10^4 cells per well. The cultures were maintained in medium 154XP (Cascade Biologics) to which human keratinocyte growth supplement (Cascade Biologics) was added. Cultures were plated initially in medium 154XP containing 0.07 mM CaCl2. Upon reaching […] confluency, the media was exchanged with high calcium medium 154XP containing 1.2 mM CaCl2. Previous studies have shown that an increase in extracellular Ca^2+concentration induces the differentiation of cultured keratinocytes with a concomitant increase in the expression of COX II protein and COX II mRNA with no apparent effect on COX I expression (Leong, J., Hughes-Fulford, M., Rakhlin, A., Maclouf, J., and Goldyne, M., (1996), Exp. Cell Res., V224, p79). Twenty-four hours after switching to the high calcium media, duplicate wells were treated with dehydroabietic acid methyl ester serially diluted in ethanol to produce final concentrations of 5, 1.0, 0.2, and 0.04 uM. Companion cultures were treated with an identical dilution series of the Merck COX II-specific inhibitor DFU. Twenty-four hours later, samples were removed from each treated well (as well as vehicle-treated control wells) and the amount of PGE2 (a product of the COX II pathway) was quantified using a PGE2-specific enzyme immunoassay (Cayman Chemical). ), As was done with the previously described biochemical assays (COX I, COX II, 5-LO, and 15-LO), the percent inhibition was calculated based on a comparison between vehicle treated control cultures and cultures treated with dehydroabietic acid methyl ester or DFU (see Fractionation and Bioassay Analysis of Fractions Derived from Extract-8 above).
The ability of 4-cumylphenol to inhibit the enzymatic activity of COX II was tested using primary cultures of human foreskin keratinocytes. These cell studies were performed in an identical manner to the studies described in Example 6. […] Twenty-four hours later, samples were removed from each treated well (as well as vehicle-treated control wells) and the amount of PGE2 (a product of the COX II pathway) was quantified using a PGE2-specific enzyme immunoassay (Cayman Chemical). ), as was done with the previously described COX I, COX II, and 15-LO biochemical assays (see Example 2B). The percent inhibition was calculated based on a comparison between vehicle treated control cultures and cultures treated with 4-cumylphenol or DFU. […]
To evaluate the biological activities of 3-methoxy aniline, sufficient quantities of the compound were synthesized as detailed in Example 1C (above). […]

[2] = system: human keratinocytes; assay: Lactate dehydrogenase (LDH) release toxicity assay; format: cell-based; details: highest value of any culture treated with 5, 1.0, 0.2 or 0.04 uM
Method: To address the possibility that the inhibition of both PGE2 and LTB4 production by human keratinocytes treated with dehydroabietic acid methyl ester was […], a cell lactate dehydrogenase toxicity assay (Fisher Scientific) was performed. Briefly, lactate dehydrogenase (LDH) is found intracellularly and is released only in response to toxic stimuli and/or cell death. The amount of LDH released into the media of cultured cells is indicative of the degree of toxicity occurring in that culture. To do the assay, 48-well plates of cultured human keratinocytes (as described above for the PGE2 assay) were prepared and treated with the same concentrations of dehydroabietic acid methyl ester as described above for the PGE2 and LTB4 assays. One hour prior to harvesting culture media samples from wells treated with dehydroabietic acid methyl ester, duplicate wells were treated with a cell lysis buffer (Fisher Scientific) that caused 100% cell death to occur in the treated wells. After culture media samples were collected from all wells, the amount of LDH present in each was determined using a colorometric assay (Fisher Scientific). […] The amount of LDH released into the media of cultures treated with dehydroabietic acid methyl ester as well as vehicle-control media was determined using the colorometric assay and expressed as a percentage of that released by the 100% cell death wells.
To address the possibility that the inhibition of PGE2 production by human keratinocytes treated with 4-cumylphenol was due to toxicity, a cell lactate dehydrogenase toxicity assay (Fisher Scientific) was performed. […] After culture media samples were collected from all wells, the amount of LDH present in each was determined using a colorometric assay (Fisher Scientific). […] The amount of LDH released into the media of cultures treated with dehydroabietic acid methyl ester as well as vehicle-control media was determined using the colorometric assay and expressed as a percentage of that released by the 100% cell death wells. […]

Compound	inhibition of PGE2 production by cultured human keratinocytes [1]	percent toxicity (LDH released) versus the 100% cell death control [2] [%]
CC(C)(c1ccccc1)c1ccc(O)cc1 [4-Cumylphenol, 4-cumylphenol]	inhibited the production of PGE2	≤ 12.7
COC(=O)[C@]1(C)CCC[C@]2(C)c3ccc(C(C)C)cc3CC[C@@H]12 [Dehydroabietic acid methyl ester, dehydroabietic acid methyl ester]	inhibited the production of PGE2	≤ 12
